Experimental findings from US7101841B2, “Carbohydrate-specific peptides which have a strong affinity and preparations method thereof” (Korea Institute of Science and Technology, priority 2001, dated 2006) are described below.

The target of assay [1] is sLeX. The assay can be described thus: BIAcore measurement of binding capacity of peptides on sLeX-BSA fixed CM5 chip. The protocol: To measure the binding capacity of peptides, BIAcore was used. CM5 made by gold and protruded with CM-dextran layer and carboxylic acid group was used as a chip. BSA (Oxford Glyco Science, USA) binding with sLeX was used as a ligand for fixing.
At first, chip surface was stabilized with 100 mM HEPES buffer solution (pH 8.0), and activated with the mixture of 0.4 M EDC (1-ethyl-3-[3′-dimethylaminopropyl]carbodiimide) and 0.1 M NHS (N-hydroxysuccunimide). And then, sodium acetate buffer(10 mM, pH 4.0) containing 0.05 mg/ml of sLeX-BSA or BSA was injected and fixed onto the surface of CM5 chip until the value of RU reached to 6,000. Chip surface remaining active state was substituted with 1.0 M ethanolamine. Target molecules were bound to CM5 chip, and binding buffer (0.01 M HEPES, […], 3 mM EDTA, 0.005% polysorbate 20, pH 7.4) was flowed on the chip surface for equilibration, and finally, bindng capacity was determined by flowing binding buffer containing peptides according to the concentrations. At that time, peptides were combined with their targets with different speed and slope according to the affinity of peptides and target molecules and the affinity between target molecules was measured from the each result. […]
(SPR reads the build-up and loss of mass on a sensor chip optically.)

The subject of assay [2] is sLeX. The assay can be described thus: Peptide phage library biopanning against sLeX-BSA. It counts as binding. Conditions: after three rounds of biopanning. How it is done:
As described above, in order to obtain molecules having strong binding capacity to carbohydrates using repetitive structure of peptide, sialyl Lewis X (sLeX) existing in tumor cells or inflammation response cells was selected as a target, and a peptide binding to the sLeX well was selected by using peptide phage library and biopanning method. Particularly, sLeX-BSA(Oxford Glycoscience) was added into 0.1 M NaHCO3(pH 8.6) buffer solution until the concentration reached to 100 μg/ml. 150 μl of the above solution(sLeX-BSA 0.1 M NaHCO3) was loaded into one well of 96-well plate, and 150 μl of BSA 0.1 M NaHCO3(pH 8.6) was also loaded into the other well. The well plate was shaken to soak completely, and left for overnight at 4° C. The solution in 96-well plate was washed, followed by adding 200 μl of blocking solution(0.1 M ethanol amine, 0.1 M NaHCO3, pH 8.6) into the wells, and then the plate was left for overnight at 4° C. After blocking solution was removed from the 96-well plate, the plate was washed with 200 μl of TBS-T(50 mM Tris-HCl, pH 7.5, 150 mM NaCl, 0.1% [v/v] Tween-20). […]
180 μl of extraction solution was loaded into 3 ml of ER2537 culture solution(OD600=0.2–0.3) and cultured for 4.5 hours at 37° C. while shaking with 250 rpm. […] The amplified phage obtained above was diluted with various concentrations, and the proper concentration was calculated as follows. […]

AHWIPRYSSPAT [monomer]: in assay [1] (BIAcore, sLeX-BSA fixed on CM5 chip, read-out: Kp against sLeX), the Kd stood at 25.4 mM. Also, in assay [1] (peptide flowed at 62.5 μM, sLeX-BSA fixed chip, FIG. 1), the “strength of binding converted into the height of sensorgram” value was 16 RU.

Turning to “peptide represented by the SEQ. ID NO.1: peptide composed of 12 amino acids selected by phage display for binding to sLeX (AHWIPRYSSPAT; synthetic peptide which have a strong affinity to carbohydrate)”, the “binding capacity to sLeX relative to other selected peptides” value in assay [2] is on record as “better than that of the other peptides”.
